Assay results published in US5106407A, “Iodones and methods for antimicrobial use” (priority 1989, dated 1992).
In brackets after ≈: the same amount, converted by molar mass. Read-outs that look alike come from different tables or passages of the source.

Assays:
Enterobacter aerogenes = assay: minimum inhibitory concentration (MIC), agar dilution; assay type: cell-based; conditions: for MIC: Klebsiella aerogenes
Experimental: (§1) The minimum inhibitory concentration (MIC) for the compound of Example 19, i.e., (2-nitrophenyl)-iodonium 2,2-dimethyl-4,6-dioxo-1,3-dioxan-5-ylide was determined for 9 bacteria (using nutrient agar) and 5 yeast and fungi (using malt yeast agar). A one percent solution of this test compound (i.e., the compound of Example 19) was prepared in a mixture of acetone-water. Nutrient agar was prepared at pH 6.8 using deionized water according to standard Difco procedures. Malt yeast agar was prepared by adding 3 g Bacto yeast extract and 42 g Bacto Malt agar per liter of deionized water. The agar (nutrient agar when testing with bacteria and malt yeast agar when testing with yeast and fungi) was dispensed in 30 mL aliquots into 25×200 millimeter (mm) test tubes, capped and autoclaved for 15 min at 115° C. The test tubes containing the agar were cooled in a water bath until the temperature of the agar was 48° C. and then an appropriate amount of the one percent solution of the test compound was added (except in the controls where no test compound was added with the acetone-water) to the respective test tubes so that final concentrations of 500, 250, 100, 50, 25, 10, 5, 2.5, 1.0 and 0 parts per million (ppm) of the test compound in the agar were obtained. The agar solutions were each mixed and poured into individual petri plates so that each petri plate contained agar having a known concentration of test compound dispersed therein. After drying for 24 hr, the petri plates were inoculated with bacteria when the petri plates contained nutrient broth agar or with fungi and yeast when the petri plates contained malt yeast agar.
(§2) The inoculation with bacteria was accomplished using the following procedure. Twenty-four hr cultures of each of the bacteria were prepared by incubating the respective bacteria in tubes containing nutrient broth for 24 hr at 30° C. in a shaker. Dilutions of each of the 24 hr cultures were made so that 9 separate suspensions (one for each of the 9 test bacteria) were made, each containing about 10^8 colony forming units (CFU) per mL of suspension of a particular bacteria. Aliquots of 0.3 mL of each of the above suspensions were used to fill individual wells of a Steer's Replicator. For each microbial suspension, 0.3 mL was used to fill 3 wells (i.e., 3 wells of 0.3 mL each) so that for the 9 different bacteria 27 wells were filled. The Steer's Replicator was then used to inoculate the petri plates.
(§3) The petri plates were incubated at 30° C. for 48 hr and then read to determine if the test compound (i.e., the compound of Example 19) which was incorporated into the agar prevented growth of the respective bacteria. The minimum inhibitory concentration (MIC) for each bacteria was defined as the lowest concentration of the test compound which prevented growth of that bacteria.
(§4) In a similar procedure, the MIC (in ppm) of the compound of Example 11 (i.e., (2-nitrophenyl)-iodonium 2,6-dioxocyclohexylide) for various organisms was determined at an acid pH (about 6.8) and at an alkaline pH (about 8.2).
(§5) Using similar procedures, the MIC's (in ppm) of various compounds of Formula I and/or Formula II were determined for the organisms Enterobacter aerogenes and Bacillus subtilis in a neutral solution (pH about 6.8) and in an alkaline medium (pH about 8.2).

Bacillus subtilis = assay: as above; assay type: cell-based; conditions: for MIC: Bacillus subtilis
Experimental: as §1, §2, §3, §4, §5

[1] = alkaline growth medium (pH = 8.2), read-out: MIC (AEA)
[2] = neutral growth medium (pH = 6.8), read-out: MIC (NEA)
[3] = alkaline growth medium (pH = 8.2), read-out: MIC (ABS)
[4] = neutral growth medium (pH = 6.8), read-out: MIC (NBS)
[5] = alkaline growth medium (pH = 8.2)
[6] = neutral growth medium (pH = 6.8)

| Compound | MIC (Enterobacter aerogenes; [1]) | MIC (Enterobacter aerogenes; [2]) | MIC (Bacillus subtilis; [3]) | MIC (Bacillus subtilis; [4]) | MIC (AEA) (Enterobacter aerogenes; [5]) | MIC (NEA) (Enterobacter aerogenes; [6]) | MIC (ABS) (Bacillus subtilis; [5]) | MIC (NBS) (Bacillus subtilis; [6]) |
| --- | --- | --- | --- | --- | --- | --- | --- | --- |
| O=C1CCC(=O)[C-]1[I+]c1ccccc1[N+](=O)[O-] [Example 10, (2-Nitrophenyl)-iodonium 2,5-dioxocyclopentyl-1-ylide] | > 500 µg/mL | ≤ 10 µg/mL | > 500 µg/mL | 25 µg/mL (≈ 72.4 µM) | – | – | – | – |
| CC1(C)CC(=O)[C-]([I+]c2ccccc2S(C)(=O)=O)C(=O)C1 [Example 12, ((2-Methylsulfonyl)phenyl)-iodonium 4,4-dimethyl-2,6-dioxocyclohexan-1-ylide] | > 500 µg/mL | > 500 µg/mL | 100 µg/mL (≈ 238 µM) | 250 µg/mL (≈ 595 µM) | – | – | – | – |
| CC1(C)CC(=O)[C-]([I+]c2ccccc2[N+](=O)[O-])C(=O)C1 [Example 14, (2-Nitrophenyl)-iodonium 4,4-dimethyl-2,6-dioxocyclohexylide] | ≤ 1 µg/mL | 2.5 µg/mL (≈ 6.46 µM) | ≤ 1 µg/mL | 2.5 µg/mL (≈ 6.46 µM) | – | – | – | – |
| CC1CC(=O)[C-]([I+]c2ccccc2[N+](=O)[O-])C(=O)C1 [Example 15, (2-Nitrophenyl)-iodonium 4-methyl-2,6-dioxocyclohexan-1-ylide] | 100 µg/mL (≈ 268 µM) | ≤ 10 µg/mL | ≤ 10 µg/mL | ≤ 10 µg/mL | – | – | – | – |
| Cc1ccc([I+][C-]2C(=O)OC(C)(C)OC2=O)c([N+](=O)[O-])c1 [Example 16, (4-Methyl-2-nitrophenyl)-iodonium 2,2-dimethyl-4,6-dioxo-1,3-dioxan-5-ylide] | 10 µg/mL (≈ 24.7 µM) | 2.5 µg/mL (≈ 6.17 µM) | 5 µg/mL (≈ 12.3 µM) | 2.5 µg/mL (≈ 6.17 µM) | – | – | – | – |
| Cc1ccc(I=C2C(=O)OC(C)(C)OC2=O)c([N+](=O)[O-])c1C [Example 17, (3,4-Dimethyl-2-nitrophenyl)-iodonium 2,2-dimethyl-4,6-dioxo-1,3-dioxan-5-ylide] | – | – | – | – | 25 ppm | 25 ppm | < 10 ppm | < 10 ppm |
| CC1(C)OC(=O)[C-]([I+]c2ccc(Cl)cc2[N+](=O)[O-])C(=O)O1 [Example 18, (4-chloro-2-nitrophenyl)-iodonium 2,2-dimethyl-4,6-dioxo-1,3-dioxan-5-ylide] | 250 µg/mL (≈ 587 µM) | 100 µg/mL (≈ 235 µM) | 250 µg/mL (≈ 587 µM) | 100 µg/mL (≈ 235 µM) | – | – | – | – |
| COc1ccc([I+][C-]2C(=O)OC(C)(C)OC2=O)c([N+](=O)[O-])c1 [Example 20, (4-Methoxy-2-nitrophenyl)-iodonium 2,2-dimethyl-4,6-dioxo-1,3-dioxan-5-ylide] | 25 µg/mL (≈ 59.4 µM) | ≤ 10 µg/mL | 25 µg/mL (≈ 59.4 µM) | ≤ 10 µg/mL | – | – | – | – |
| CC1(C)OC(=O)[C-]([I+]c2ccccc2S(C)(=O)=O)C(=O)O1 [Example 21, ((2-Methylsulfonyl)phenyl)-iodonium 2,2-dimethyl-4,6-dioxo-1,3-dioxan-5-ylide] | > 500 µg/mL | > 500 µg/mL | 50 µg/mL (≈ 118 µM) | 25 µg/mL (≈ 58.9 µM) | – | – | – | – |
| O=c1oc2ccc(F)cc2c(=O)[c-]1[I+]c1ccccc1[N+](=O)[O-] [Example 22, (2-Nitrophenyl)-iodonium 6-fluoro-3,4-dihydro-2,4-dioxo-2H-benzopyran-3-ylide] | 250 µg/mL (≈ 585 µM) | ≤ 10 µg/mL | 100 µg/mL (≈ 234 µM) | ≤ 10 µg/mL | – | – | – | – |
| O=c1oc2ccc(Br)cc2c(=O)[c-]1[I+]c1ccccc1[N+](=O)[O-] [Example 23, (2-Nitrophenyl)-iodonium 6-bromo-3,4-dihydro-2,4-dioxo-2H-benzopyran-3-ylide] | > 500 µg/mL | > 500 µg/mL | 250 µg/mL (≈ 512 µM) | 100 µg/mL (≈ 205 µM) | – | – | – | – |
| O=C(O)c1ccc2oc(=O)[c-]([I+]c3ccccc3[N+](=O)[O-])c(=O)c2c1 [Example 26, (2-Nitrophenyl)-iodonium 6-carboxy-3,4-diohydro-2,4-dioxo-2H -benzopyran-3-ylide] | 250 µg/mL (≈ 552 µM) | 250 µg/mL (≈ 552 µM) | 250 µg/mL (≈ 552 µM) | ≤ 10 µg/mL | – | – | – | – |
| CS(=O)(=O)c1ccccc1[I+][c-]1c(=O)oc2ccc(Cl)cc2c1=O [Example 27, ((2-Methylsulfonyl)phenyl)-iodonium 6-chloro-3,4-dihydro-2,4-dioxo-2H-benzopyran-3-ylide] | > 500 µg/mL | > 500 µg/mL | ≤ 10 µg/mL | ≤ 10 µg/mL | – | – | – | – |
| COc1ccc2oc(=O)[c-]([I+]c3ccccc3S(C)(=O)=O)c(=O)c2c1 [Example 28, ((2-Methylsulfonyl)phenyl)-iodonium 3,4-dihydro-6-methoxy-2,4-dioxo-2H-benzopyran-3-ylide] | > 500 µg/mL | > 500 µg/mL | ≤ 10 µg/mL | ≤ 10 µg/mL | – | – | – | – |
| CS(=O)(=O)c1ccccc1[I+][c-]1c(=O)oc2ccc(C(=O)O)cc2c1=O [Example 29, ((2-Methylsulfonyl)phenyl)-iodonium 6-carboxy-3,4-dihydro-2,4-dioxo-2H-benzopyran-3-ylide] | > 500 µg/mL | > 500 µg/mL | ≤ 10 µg/mL | ≤ 10 µg/mL | – | – | – | – |
| CS(=O)(=O)c1ccccc1[I+][c-]1c(=O)oc2ccc(Br)cc2c1=O [Example 30, ((2-Methylsulfonyl)phenyl)-iodonium 6-bromo-3,4-dihydro-2,4-dioxo-2H-benzopyran-3-ylide] | > 500 µg/mL | > 500 µg/mL | ≤ 10 µg/mL | ≤ 10 µg/mL | – | – | – | – |
| O=c1oc2ccccc2c(=O)[c-]1[I+]c1ccccc1[N+](=O)[O-] [Example 32, (2-Nitrophenyl)-iodonium 3,4-dihydro-2,4-dioxo-2H-benzopyran-3-ylide] | 25 µg/mL (≈ 61.1 µM) | ≤ 10 µg/mL | ≤ 10 µg/mL | ≤ 10 µg/mL | – | – | – | – |
| COc1ccc2oc(=O)[c-]([I+]c3ccccc3[N+](=O)[O-])c(=O)c2c1 [Example 33, (2-Nitrophenyl)-iodonium 3,4-dihydro-6-methoxy-2,4-dioxo-2H-benzopyran-3-ylide] | > 500 µg/mL | > 500 µg/mL | ≤ 10 µg/mL | ≤ 10 µg/mL | – | – | – | – |
| Cc1cccc2c(=O)[c-]([I+]c3ccccc3[N+](=O)[O-])c(=O)oc12 [Example 34, (2-Nitrophenyl)-iodonium 3,4-dihydro-8-methyl-2,4-dioxo-2H-benzopyran-3-ylide] | 500 µg/mL (≈ 1180 µM) | 500 µg/mL (≈ 1180 µM) | 25 µg/mL (≈ 59.1 µM) | ≤ 10 µg/mL | – | – | – | – |
| CCn1c(=O)[c-]([I+]c2ccccc2[N+](=O)[O-])c(=O)n(CC)c1=S [Example 36, (2-Nitrophenyl)-iodonium 1,3-diethylhexahydro-4,6-dioxo-2-thiopyrimidin-5-ylide] | > 500 µg/mL | 500 µg/mL (≈ 1120 µM) | > 500 µg/mL | > 500 µg/mL | – | – | – | – |
| O=c1[nH]c2ccccc2c(=O)[c-]1[I+]c1ccccc1[N+](=O)[O-] [Example 41, (2-Nitrophenyl)-iodonium 1,2,3,4-tetrahydro-2,4-dioxoquinolin-3-ylide] | > 500 µg/mL | ≤ 10 µg/mL | 500 µg/mL (≈ 1230 µM) | ≤ 10 µg/mL | – | – | – | – |
| CS(=O)(=O)c1ccccc1[I+][c-]1c(=O)cc[nH]c1=O [Example 42, ((2-Methylsulfonyl)phenyl)-iodonium 1,2,3,4-tetrahydro-2,4-dioxopyridine3-ylide] | > 500 µg/mL | 500 µg/mL (≈ 1280 µM) | 500 µg/mL (≈ 1280 µM) | 500 µg/mL (≈ 1280 µM) | – | – | – | – |
| O=c1cc[nH]c(=O)[c-]1[I+]c1ccccc1[N+](=O)[O-] [Example 43, (2-Nitrophenyl)-iodonium 1,2,3,4-tetrahydro-2,4-dioxopyridin-3-ylide] | > 500 µg/mL | 500 µg/mL (≈ 1400 µM) | 500 µg/mL (≈ 1400 µM) | 50 µg/mL (≈ 140 µM) | – | – | – | – |
| (2-Nitrophenyl)-iodonium 3,4,5,6-tetrahydro-4,6-doxo-5-pyrimidinylide [Example 35] | – | – | – | – | > 500 ppm | – | – | – |
